Data: ChEMBL document CHEMBL5465560, “Selectivity Literature for EUbOPEN Chemogenomic Library” (2024)

Tests used:
[1] = target: Mitogen-activated protein kinase 1 (Homo sapiens, UniProt P28482); details: at 10 µM
[2] = target: T1, cGMP-dependent protein kinase 1 (Homo sapiens) (UniProt Q13976); assay: Selectivity interaction (KinaseProfiler screening (Millipore)) EUB0000601a PRKG1; details: at 3 µM
T1 sequence (whole entry): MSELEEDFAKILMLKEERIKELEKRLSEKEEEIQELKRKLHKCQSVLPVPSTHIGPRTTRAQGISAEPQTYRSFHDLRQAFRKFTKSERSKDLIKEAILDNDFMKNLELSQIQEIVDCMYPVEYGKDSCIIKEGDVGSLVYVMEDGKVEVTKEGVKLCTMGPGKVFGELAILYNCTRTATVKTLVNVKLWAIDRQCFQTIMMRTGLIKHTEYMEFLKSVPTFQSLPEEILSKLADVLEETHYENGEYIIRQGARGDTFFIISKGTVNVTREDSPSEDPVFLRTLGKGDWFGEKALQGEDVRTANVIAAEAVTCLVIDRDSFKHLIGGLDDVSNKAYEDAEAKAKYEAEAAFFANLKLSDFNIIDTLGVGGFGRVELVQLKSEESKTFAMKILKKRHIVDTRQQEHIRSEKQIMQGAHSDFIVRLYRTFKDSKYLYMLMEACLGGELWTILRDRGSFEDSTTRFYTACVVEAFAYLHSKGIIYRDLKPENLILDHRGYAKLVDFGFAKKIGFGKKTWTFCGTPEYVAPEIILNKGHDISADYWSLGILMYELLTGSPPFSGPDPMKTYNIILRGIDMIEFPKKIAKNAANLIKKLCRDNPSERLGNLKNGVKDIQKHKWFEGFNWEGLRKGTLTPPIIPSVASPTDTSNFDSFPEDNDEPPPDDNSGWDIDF

[3] = target: Mitogen-activated protein kinase 4 (Homo sapiens) (UniProt P31152); assay: Selectivity interaction (KinomeScan (DiscoverX)) EUB0001049a MAPK4; details: at 1 µM
Activated CDC42 kinase 1 = Activated CDC42 kinase 1 (Homo sapiens, UniProt Q07912); assay: Selectivity interaction (Ambit KINOMEscan and KiNATiv profiling in Jurkat cells) EUB0000090b TNK2; format: cell-based; details: at 1 µM
[4] = target: Serine/threonine-protein kinase 35 (Homo sapiens) (UniProt Q8TDR2); assay: Selectivity interaction (Ambit KINOMEscan and KiNATiv profiling in Jurkat cells) EUB0000090b STK35; format: cell-based; details: at 1 µM
[5] = target: Cyclin-dependent kinase 7 (Homo sapiens, UniProt P50613); assay: Selectivity interaction (ActivX KiNativ screen (kinase selectivity in THP-1 cell lysates)) EUB0000639a CDK7; format: subcellular; details: lysate, at 0.2 µM
[6] = target: T2, Histone-arginine methyltransferase CARM1 (Homo sapiens) (UniProt Q86X55); details: MM.1R, at 3 µM
T2 sequence (whole entry): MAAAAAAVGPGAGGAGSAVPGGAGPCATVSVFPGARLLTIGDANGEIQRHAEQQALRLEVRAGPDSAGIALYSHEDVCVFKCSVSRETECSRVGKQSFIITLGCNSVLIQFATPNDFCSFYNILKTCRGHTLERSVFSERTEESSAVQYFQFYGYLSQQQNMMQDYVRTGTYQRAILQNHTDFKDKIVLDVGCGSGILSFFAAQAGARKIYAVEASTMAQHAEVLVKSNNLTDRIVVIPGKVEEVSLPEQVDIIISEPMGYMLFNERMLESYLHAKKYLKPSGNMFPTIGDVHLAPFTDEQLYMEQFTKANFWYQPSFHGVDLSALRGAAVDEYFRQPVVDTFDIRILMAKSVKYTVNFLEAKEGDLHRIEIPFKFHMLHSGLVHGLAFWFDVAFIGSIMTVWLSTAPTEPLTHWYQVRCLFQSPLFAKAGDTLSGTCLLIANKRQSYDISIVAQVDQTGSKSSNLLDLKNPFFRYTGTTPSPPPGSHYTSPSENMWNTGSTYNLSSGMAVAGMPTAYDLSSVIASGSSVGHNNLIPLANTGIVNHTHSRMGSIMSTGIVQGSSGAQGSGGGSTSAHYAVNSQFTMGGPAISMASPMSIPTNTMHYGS

[7] = target: Tyrosine-protein kinase Blk (Homo sapiens) (UniProt P51451); assay: Selectivity interaction (Kinase panel (Z-LYTE Assay)) EUB0001632a BLK; details: at 10 µM
[8] = target: Glycogen synthase kinase-3 beta (Homo sapiens, UniProt P49841); assay: Selectivity interaction (KinomeScan (DiscoverX)) EUB0000695a GSK3B; details: at 100 nM
[9] = target: Androgen receptor (Homo sapiens) (UniProt P10275); assay: Selectivity interaction (Eurofins CEREP Diversity Profile (receptors and ion channels)) EUB0000279b AR; details: at 10 µM
[10] = target: Tyrosine-protein kinase FRK (Homo sapiens) (UniProt P42685); details: at 10 µM
[11] = target: Histone-lysine N-methyltransferase PRDM9 (Homo sapiens) (UniProt Q9NQV7); assay: Selectivity interaction (Methyltransferase screen (radiometric assays, panel of 8 PRMTs, 21 protein lysine methyltransferases, 3 DNA methyltransferases, and one RNA methyltransferase)) EUB0000271b PRDM9
[12] = target: Cyclin-dependent kinase 2 (Homo sapiens, UniProt P24941); assay: Selectivity interaction (KinomeScan (DiscoverX)) EUB0000595a CDK2; details: at 10 µM
[13] = target: MAP kinase-activated protein kinase 2 (Homo sapiens, UniProt P49137); assay: Selectivity interaction (KinomeScan (DiscoverX)) EUB0001619a MAPKAPK2; details: at 1 µM
[14] = target: Cyclin-dependent kinase 14 (Homo sapiens) (UniProt O94921); assay: Selectivity interaction (KinomeScan (DiscoverX)) EUB0000618a CDK14; details: at 10 µM
[15] = target: AP2-associated protein kinase 1 (Homo sapiens, UniProt Q2M2I8); assay: Selectivity interaction (KinomeScan (DiscoverX)) EUB0000607a AAK1; details: at 10 µM
[16] = target: Serine/threonine-protein kinase SMG1 (Homo sapiens) (UniProt Q96Q15); assay: Selectivity interaction (Kinase panel (KiNativ target engagement assay in Jurkat cells)) EUB0001635a SMG1; format: cell-based; details: Selectivity number of off-targets 0.0, Selectivity number of targets 233.0, Source Knowledge https://www.sciencedirect.com/science/article/pii/S2451945619300674?via%3Dihub, at 1 µM
[17] = target: T3, Histone-arginine methyltransferase CARM1 (Homo sapiens, UniProt Q86X55); assay: Selectivity interaction (Western Blot (dimethylation of BAF155 (BAF155me2a/BAF155) in KMS-27 cells)) EUB0000255b CARM1; format: cell-based
T3 sequence (Q86X55 whole entry): T2 sequence (whole entry)

[18] = target: Serine/threonine-protein kinase PAK 4 (Homo sapiens, UniProt O96013); assay: Selectivity interaction (KinomeScan (DiscoverX)) EUB0000666a PAK4; details: at 10 µM
[19] = target: BMP-2-inducible protein kinase (Homo sapiens) (UniProt Q9NSY1); assay: Selectivity interaction (Kinase panel (DSF assay)) EUB0001558a BMP2K
Chain of BMP-2-inducible protein kinase (Homo sapiens) (Q9NSY1 whole entry, looked up): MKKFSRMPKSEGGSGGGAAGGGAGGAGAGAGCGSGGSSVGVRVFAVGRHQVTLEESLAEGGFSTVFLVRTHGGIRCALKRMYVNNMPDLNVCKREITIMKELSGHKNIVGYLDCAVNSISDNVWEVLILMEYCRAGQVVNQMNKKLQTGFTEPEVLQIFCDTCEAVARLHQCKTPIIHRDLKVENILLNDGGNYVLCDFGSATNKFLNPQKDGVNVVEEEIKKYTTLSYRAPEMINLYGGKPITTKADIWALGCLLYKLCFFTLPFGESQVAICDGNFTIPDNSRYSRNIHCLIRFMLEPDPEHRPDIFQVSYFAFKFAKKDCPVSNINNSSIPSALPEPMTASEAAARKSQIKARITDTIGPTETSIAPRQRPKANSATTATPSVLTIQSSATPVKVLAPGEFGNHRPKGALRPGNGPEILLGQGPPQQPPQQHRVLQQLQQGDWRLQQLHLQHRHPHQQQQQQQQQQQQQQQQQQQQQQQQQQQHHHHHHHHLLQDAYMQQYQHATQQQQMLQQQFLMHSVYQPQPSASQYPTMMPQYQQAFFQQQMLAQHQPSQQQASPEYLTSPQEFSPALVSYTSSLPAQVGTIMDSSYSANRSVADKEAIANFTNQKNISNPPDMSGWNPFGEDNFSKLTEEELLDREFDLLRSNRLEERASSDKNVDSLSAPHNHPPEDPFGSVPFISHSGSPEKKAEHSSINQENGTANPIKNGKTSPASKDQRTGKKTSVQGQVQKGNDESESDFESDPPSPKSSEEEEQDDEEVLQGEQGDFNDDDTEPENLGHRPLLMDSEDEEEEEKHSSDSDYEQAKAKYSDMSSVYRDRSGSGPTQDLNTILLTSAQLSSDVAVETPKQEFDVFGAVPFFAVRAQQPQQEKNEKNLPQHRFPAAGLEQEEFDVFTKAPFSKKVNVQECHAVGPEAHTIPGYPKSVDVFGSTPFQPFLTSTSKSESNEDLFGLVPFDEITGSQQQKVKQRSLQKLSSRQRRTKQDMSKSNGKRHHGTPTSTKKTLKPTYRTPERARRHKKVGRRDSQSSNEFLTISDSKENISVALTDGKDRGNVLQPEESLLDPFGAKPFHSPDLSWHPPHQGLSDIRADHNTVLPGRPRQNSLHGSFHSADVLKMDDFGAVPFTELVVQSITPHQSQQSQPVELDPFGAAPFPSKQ

Chain of Histone-lysine N-methyltransferase PRDM9 (Homo sapiens) (Q9NQV7 whole entry): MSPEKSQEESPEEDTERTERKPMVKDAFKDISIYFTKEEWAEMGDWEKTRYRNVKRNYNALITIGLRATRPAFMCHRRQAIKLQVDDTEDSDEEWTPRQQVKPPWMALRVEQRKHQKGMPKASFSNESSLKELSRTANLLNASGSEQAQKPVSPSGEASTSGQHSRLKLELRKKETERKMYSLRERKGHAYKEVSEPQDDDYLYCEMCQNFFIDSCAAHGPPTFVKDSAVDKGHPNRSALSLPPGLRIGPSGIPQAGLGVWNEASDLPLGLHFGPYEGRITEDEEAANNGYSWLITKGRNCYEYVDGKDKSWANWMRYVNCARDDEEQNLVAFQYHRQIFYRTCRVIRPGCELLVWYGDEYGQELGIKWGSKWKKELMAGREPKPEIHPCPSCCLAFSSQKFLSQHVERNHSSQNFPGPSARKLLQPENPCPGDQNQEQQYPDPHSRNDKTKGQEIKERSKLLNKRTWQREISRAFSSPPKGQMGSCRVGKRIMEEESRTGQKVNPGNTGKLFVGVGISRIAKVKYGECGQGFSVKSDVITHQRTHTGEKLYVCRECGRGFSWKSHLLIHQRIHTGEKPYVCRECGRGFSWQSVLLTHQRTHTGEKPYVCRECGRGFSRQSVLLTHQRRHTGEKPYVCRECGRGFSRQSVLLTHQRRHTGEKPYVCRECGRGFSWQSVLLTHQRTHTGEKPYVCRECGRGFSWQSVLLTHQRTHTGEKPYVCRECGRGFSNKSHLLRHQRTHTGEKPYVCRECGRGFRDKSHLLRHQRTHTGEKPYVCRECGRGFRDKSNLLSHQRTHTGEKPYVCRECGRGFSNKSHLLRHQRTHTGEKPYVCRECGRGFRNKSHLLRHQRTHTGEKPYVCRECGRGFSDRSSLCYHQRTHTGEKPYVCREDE
Chain of MAP kinase-activated protein kinase 2 (P49137 whole entry, looked up): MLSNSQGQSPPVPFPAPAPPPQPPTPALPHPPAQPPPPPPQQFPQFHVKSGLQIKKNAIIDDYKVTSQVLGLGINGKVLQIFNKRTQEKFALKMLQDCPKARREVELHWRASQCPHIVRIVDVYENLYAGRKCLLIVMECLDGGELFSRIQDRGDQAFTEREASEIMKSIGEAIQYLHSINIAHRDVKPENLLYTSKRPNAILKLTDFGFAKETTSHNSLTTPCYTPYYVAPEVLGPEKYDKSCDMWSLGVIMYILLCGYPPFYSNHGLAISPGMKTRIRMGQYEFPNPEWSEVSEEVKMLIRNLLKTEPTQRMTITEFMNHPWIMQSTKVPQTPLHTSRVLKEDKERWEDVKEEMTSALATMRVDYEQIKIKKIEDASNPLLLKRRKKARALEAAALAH
Chain of Glycogen synthase kinase-3 beta (P49841 whole entry, looked up): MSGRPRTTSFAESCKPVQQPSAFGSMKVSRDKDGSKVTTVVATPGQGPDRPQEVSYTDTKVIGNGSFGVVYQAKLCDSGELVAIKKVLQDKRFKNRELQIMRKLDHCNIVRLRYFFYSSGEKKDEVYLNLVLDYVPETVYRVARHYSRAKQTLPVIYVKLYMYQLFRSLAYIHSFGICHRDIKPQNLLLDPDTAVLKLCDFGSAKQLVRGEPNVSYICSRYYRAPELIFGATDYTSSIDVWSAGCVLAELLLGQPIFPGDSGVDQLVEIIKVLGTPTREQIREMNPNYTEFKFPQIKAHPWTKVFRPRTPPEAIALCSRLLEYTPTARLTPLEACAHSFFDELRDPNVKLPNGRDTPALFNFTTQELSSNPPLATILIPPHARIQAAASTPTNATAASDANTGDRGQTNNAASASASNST
Chain of Cyclin-dependent kinase 14 (Homo sapiens) (O94921 whole entry): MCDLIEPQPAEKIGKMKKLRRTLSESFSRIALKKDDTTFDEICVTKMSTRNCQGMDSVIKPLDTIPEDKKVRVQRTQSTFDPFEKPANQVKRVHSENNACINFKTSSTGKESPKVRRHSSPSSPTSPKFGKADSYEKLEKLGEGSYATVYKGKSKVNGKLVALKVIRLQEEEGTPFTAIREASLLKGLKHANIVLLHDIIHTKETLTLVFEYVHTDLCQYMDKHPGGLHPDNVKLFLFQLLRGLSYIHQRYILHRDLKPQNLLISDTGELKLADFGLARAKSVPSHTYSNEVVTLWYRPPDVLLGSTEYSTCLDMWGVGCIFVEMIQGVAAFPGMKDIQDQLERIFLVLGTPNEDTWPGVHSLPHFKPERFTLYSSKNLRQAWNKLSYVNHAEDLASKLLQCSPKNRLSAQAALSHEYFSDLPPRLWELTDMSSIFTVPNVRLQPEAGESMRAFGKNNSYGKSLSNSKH
Chain of AP2-associated protein kinase 1 (Q2M2I8 whole entry, looked up): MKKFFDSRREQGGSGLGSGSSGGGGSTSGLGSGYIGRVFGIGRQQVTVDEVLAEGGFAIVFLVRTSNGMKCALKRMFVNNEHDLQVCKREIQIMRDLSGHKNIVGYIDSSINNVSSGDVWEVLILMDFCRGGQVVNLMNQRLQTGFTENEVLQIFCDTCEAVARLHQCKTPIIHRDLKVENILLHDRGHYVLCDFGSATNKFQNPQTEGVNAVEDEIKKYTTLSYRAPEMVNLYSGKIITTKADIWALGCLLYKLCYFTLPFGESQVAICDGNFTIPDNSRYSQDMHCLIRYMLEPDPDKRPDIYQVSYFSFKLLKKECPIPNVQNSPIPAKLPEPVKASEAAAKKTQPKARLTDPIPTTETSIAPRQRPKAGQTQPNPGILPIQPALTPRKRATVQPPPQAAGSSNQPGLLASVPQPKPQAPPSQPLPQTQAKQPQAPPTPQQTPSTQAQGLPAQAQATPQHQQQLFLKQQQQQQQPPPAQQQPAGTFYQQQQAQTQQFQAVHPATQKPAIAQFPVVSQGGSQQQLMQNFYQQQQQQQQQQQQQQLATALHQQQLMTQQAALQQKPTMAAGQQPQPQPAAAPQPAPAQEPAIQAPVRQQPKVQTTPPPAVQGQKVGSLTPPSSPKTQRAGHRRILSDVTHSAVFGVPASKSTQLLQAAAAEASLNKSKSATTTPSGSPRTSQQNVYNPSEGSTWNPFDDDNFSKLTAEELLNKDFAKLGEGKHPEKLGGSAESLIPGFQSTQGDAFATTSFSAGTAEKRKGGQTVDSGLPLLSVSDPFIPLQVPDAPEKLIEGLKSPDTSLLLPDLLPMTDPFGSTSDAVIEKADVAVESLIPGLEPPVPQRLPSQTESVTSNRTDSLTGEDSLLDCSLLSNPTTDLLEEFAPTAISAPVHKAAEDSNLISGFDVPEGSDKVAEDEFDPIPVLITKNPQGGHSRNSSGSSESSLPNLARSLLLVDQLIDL
Chain of Tyrosine-protein kinase FRK (Homo sapiens) (P42685 whole entry): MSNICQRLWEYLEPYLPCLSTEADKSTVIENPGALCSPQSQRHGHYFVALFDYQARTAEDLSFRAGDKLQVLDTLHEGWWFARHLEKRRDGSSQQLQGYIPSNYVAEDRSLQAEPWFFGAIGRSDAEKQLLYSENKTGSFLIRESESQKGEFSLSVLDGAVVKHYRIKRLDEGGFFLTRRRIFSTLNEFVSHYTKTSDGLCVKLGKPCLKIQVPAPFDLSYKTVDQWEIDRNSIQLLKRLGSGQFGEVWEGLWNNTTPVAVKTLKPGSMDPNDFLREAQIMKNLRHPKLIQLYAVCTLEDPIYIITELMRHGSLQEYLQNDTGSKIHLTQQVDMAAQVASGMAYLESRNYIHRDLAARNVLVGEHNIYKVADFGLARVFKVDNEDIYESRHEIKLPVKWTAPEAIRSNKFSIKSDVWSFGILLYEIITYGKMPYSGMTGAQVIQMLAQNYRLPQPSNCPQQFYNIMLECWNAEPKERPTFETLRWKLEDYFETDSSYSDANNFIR

Question: With Cc1cc([C@@H](C)Nc2ccccc2C(=O)O)c2nc(N3CCOCC3)cc(=O)n2c1 [AZD-6482] as the molecule, how does the % of control [1] read?
Answer: Its % of control is 100%.

Question: CCc1cc(Nc2nccc(-c3c(-c4ccc(OC)c(C(=O)Nc5c(F)cccc5F)c4)nc4ccccn34)n2)c(OC)cc1N1CCC(N2CCN(S(C)(=O)=O)CC2)CC1 was tested. Which % of inhibition [2] did it give?
Answer: The % of inhibition was 41%.

Question: For COc1cc(Nc2nc(C)cc(-c3cnn4nc(OC)ccc34)n2)cc(C(F)(F)F)c1, which % of control [3] is on record?
Answer: The % of control was 100%.

Question: What does the source list for CN(C)C/C=C/C(=O)Nc1ccc(C(=O)N2CCCC(Nc3ncc(Cl)c(-c4c[nH]c5ccccc45)n3)C2)cc1 (stereo unspecified)?
Answer: % of control (Activated CDC42 kinase 1): 99%; % of control [4]: 95%

Question: Which % of inhibition [5] does the source give for CC[C@@H]1[C@H](F)C(=O)N[C@@H]1COc1nccc2cc(C(N)=O)c(OC)cc12 [ZIMLOVISERTIB] here?
Answer: Its % of inhibition is -4.5%.

Question: With CNCCN1CCC(c2cc(CN(C)C(=O)c3cccc(Oc4ccccc4)c3)ccn2)CC1 as the molecule, how does the % of growth rate [6] read?
Answer: Its % of growth rate is -37.8%.

Question: Which % of control [7] does the source give for Cn1cc(-n2cnc3c(NCc4nc5cc(Cl)c(Cl)cc5[nH]4)nc(N4CCOCC4)nc32)cn1 here?
Answer: The % of control was 6.49%.

Question: With Cc1cc(F)c(C(=O)Nc2cccc(-c3nncn3C(C)C)n2)cc1-n1cnc(C2CC2)c1 as the molecule, how does the % of control [8] read?
Answer: The % of control was 100%.

Question: How did the % of control [9] turn out when CC(=O)c1cc(-c2ccccc2OCC2CC2)c2ncccn12 was run?
Answer: The % of control was 105%.

Question: CCN(CC)CCCCNc1ncc2cc(-c3cc(OC)cc(OC)c3)c(NC(=O)NC(C)(C)C)nc2n1 was tested. Which % of control [10] did it give?
Answer: The % of control was 100%.

Question: Which results are given for Cc1cc(C)cc([C@@H]2c3cc(C)ccc3NC(=O)CN2C(=O)c2ccc(Br)s2)c1?
Answer: % of activity ([11]; at 1 µM): 102%; % of activity ([11]; at 10 µM): 97%

Question: For COCC(=O)NC/C=C/c1ccc2ncnc(Nc3ccc(Oc4ccc(C)nc4)c(C)c3)c2c1 [CP-724714], which % of control [12] is on record?
Answer: The % of control was 92%.

Question: With N#Cc1cccc(-c2c[nH]c3ncnc(N4CCOCC4)c23)c1 as the molecule, how does the % of control [13] read?
Answer: The % of control was 100%.

Question: O[C@H]1CC[C@H](Nc2ncc3nc(Nc4c(F)cc(F)cc4F)n([C@H]4CCOC4)c3n2)CC1 was tested. Which % of control [14] did it give?
Answer: Its % of control is 100%.

Question: For CNC(=O)Nc1ccc(-c2nc(N3CC4CCC(C3)O4)c3cnn(C4CCC5(CC4)OCCO5)c3n2)cc1, which % of control [15] is on record?
Answer: Its % of control is 100%.

Question: For C=CC(=O)Nc1ccc(C(=O)Nc2[nH]nc3c2CN(C(=O)N[C@H](CN(C)C)c2ccccc2)C3(C)C)cc1, which % of engagement [16] is on record?
Answer: Its % of engagement is -4.6%.

Question: COCCN1CCC(c2cc(CN(C)C(=O)c3cccc(Oc4ccccc4)c3)ccn2)CC1 was tested. Which IC50 [17] did it give?
Answer: Its IC50 is greater than 3 nM.

Question: With O=C(NOC[C@H](O)CO)c1ccc(F)c(F)c1Nc1ccc(I)cc1F as the molecule, how does the % of control [18] read?
Answer: The % of control was 100%.

Question: CC(C)(O)[C@H](F)CN1Cc2cc(NC(=O)c3cnn4cccnc34)c(N3CCOCC3)cc2C1=O was tested. Which dTM [19] did it give?
Answer: The dTM was 8.7 K.
